How the values were obtained:
Dermcidin [1] = assay: Dermcidin immunofluorescent staining in human microdissected scalp hair follicle organ culture; assay type: cell-based; details: 500 μM, 3 and 5 days, ex vivo
Procedure: (§1) Human scalp samples were obtained 1 day after face-lifting procedure (i.e. after overnight transport from collaborating surgeons) and used at the same day for microdissecting human anagen VI scalp HFs. […] Microdissected human scalp HFs were cultured at 37° C. with 5% CO2 in a minimal media of William's E media (WEM, Gibco, Life technologies) supplemented with 2 mM of L-glutamine (Gibco), 10 ng/ml hydrocortisone (Sigma-Aldrich), 10 μg/ml insulin (Sigma-Aldrich) and 1% penicillin/streptomycin mix (Gibco) (WEM). After microdissection, the HFs were first incubated in WEM for 24 hrs for re-equilibration.
(§2) After 24 hours, WEM medium was replaced and HFs were treated with vehicle (0.1% DMSO), sandal pentanol 500 μM, for 3 or 5 days for (immuno-)histology or 6 hours for microarray. Culture medium was replaced every second day and after […], HFs were then embedded in cryomatrix (Fisher Scientific), and snap frozen in liquid nitrogen for (immuno-)histology.
OCT embedded samples were sectioned with a Leica cryostat. Dermicidin protein was detected using tissue sections fixed in 4% paraformaldehyde, pre-incubated with 10% of goat serum, and incubated with a mouse anti-human Dermcidin (Novus Biologicals, G-81, 1:200). Secondary antibody (Goat anti—mouse Alexa fluor 488) incubation was performed at room temperature for 45 min. Counterstaning with DAPI (1 μg/mL) was performed to visualize nuclei.

Dermcidin [2] = assay: Microarray analysis of human microdissected scalp hair follicles; assay type: cell-based; details: sandal pentanol 500 μM, 6 hours, vs vehicle (0.1% DMSO)
Procedure: as §1, §2

## CC1=CCC(CCC(C)C(C)O)C1(C)C (stereo not drawn) [Sandalore, 3-methyl-5-(2,2,3-trimethylcyclopent-3-en-1-yl)pentan-2-ol]
Dermcidin [1]
  Dermcidin protein expression in hair follicle outer root sheath keratinocytes: increased
Dermcidin [2]
  Dermcidin expression increase (microarray): 77.6 folds
  transcripts of AMPs genes (microarray): up-regulated

Source: patent publication US20220071921A1, “COMPOUNDS FOR PREVENTING AND TREATING SKIN OR MUCOSAL AFFECTIONS HAVING AN INFLAMMATORY COMPONENT” (GIULIANI S.P.A., priority 2018, published 2022)
